From ChEMBL document CHEMBL4619760, “Anti-inflammatory Efficacy of Combined Natural Alkaloid Berberine and S1PR Modulator Fingolimod at Low Doses in Ulcerative Colitis Preclinical Models” (J Nat Prod, 2020)
Activity calls are given as the source filed them. The rule behind the calls is not given here.

How the values were obtained:
Mus musculus [1] = experiment: (§1) Anti-colitis activity against DSS-induced C57BL/6 mouse model of subchronic relapsing colitis assessed as reduction in spleen swelling at 0.15 mg/kg, po administered once daily for 14 days starting from day 5 post DSS-challenge cotreated with 20 mg/kg berberine and measured after day 12 to day 18; type: functional, organism-based
Mus musculus [2] = experiment: Effect on total S1PR1 expression in DSS-induced C57BL/6 mouse model of subchronic relapsing colitis at 0.15 mg/kg, po administered once daily for 14 days starting from day 5 post DSS-challenge cotreated with 20 mg/kg berberine by Western blot analysis; type: ADME, organism-based; conditions: in vivo, 336 h
Mus musculus [3] = experiment: Anti-colitis activity against DSS-induced C57BL/6 mouse model of subchronic relapsing colitis assessed as effect on body weight at 0.15 mg/kg, po administered once daily for 14 days starting from day 5 post DSS-challenge cotreated with 20 mg/kg berberine and measured after day 12 to day 18; type: functional, organism-based
Mus musculus [4] = experiment: Antiinflammatory activity against DSS-induced C57BL/6 mouse model of subchronic relapsing colitis assessed as reduction in S1PR1 mRNA level at 0.3 mg/kg, po administered once daily for 14 days starting from day 5 post DSS-challenge by RT-qPCR analysis; type: functional, organism-based
Mus musculus [5] = experiment: Anti-colitis activity against DSS-induced C57BL/6 mouse model of subchronic relapsing colitis assessed as reduction in phosphorylated STAT3 level at 0.3 mg/kg, po administered once daily for 14 days starting from day 5 post DSS-challenge by Western blot analysis; type: functional, organism-based
Mus musculus [6] = experiment: Anti-colitis activity against DSS-induced C57BL/6 mouse model of chronic relapsing colitis assessed as reduction in stool bleeding at 0.15 mg/kg, po administered once daily for 30 days starting from day 13 post DSS-challenge cotreated with 20 mg/kg berberine and measured on day 43; type: functional, organism-based
Mus musculus [7] = experiment: Anti-colitis activity against DSS-induced C57BL/6 mouse model of subchronic relapsing colitis assessed as effect on body weight at 0.3 mg/kg, po administered once daily for 14 days starting from day 5 post DSS-challenge and measured after day 12 to day 18; type: functional, organism-based
[8] = (§2) Toxicity in DSS-induced C57BL/6 mouse model of chronic relapsing colitis assessed as induction of abnormalities in brain at 0.15 mg/kg, po administered once daily for 30 days starting from day 13 post DSS-challenge cotreated with 20 mg/kg berberine by hematoxylin and eosin staining based light microscopic analysis; type: organism-based; conditions: in vivo, 720 h
[9] = biological target: Signal transducer and activator of transcription 3 (Homo sapiens) (UniProt P40763); experiment: Inhibition of STAT3 activation in human THP1 cells assessed as reduction in LPS-induced phosphorylated STAT3 expression at 1 uM incubated for 1 hr followed by LPS challenge and measured after 4 to 6 hrs by Western blot analysis; type: cell-based; conditions: THP-1
Sequence of Signal transducer and activator of transcription 3 (Homo sapiens) (P40763 whole entry): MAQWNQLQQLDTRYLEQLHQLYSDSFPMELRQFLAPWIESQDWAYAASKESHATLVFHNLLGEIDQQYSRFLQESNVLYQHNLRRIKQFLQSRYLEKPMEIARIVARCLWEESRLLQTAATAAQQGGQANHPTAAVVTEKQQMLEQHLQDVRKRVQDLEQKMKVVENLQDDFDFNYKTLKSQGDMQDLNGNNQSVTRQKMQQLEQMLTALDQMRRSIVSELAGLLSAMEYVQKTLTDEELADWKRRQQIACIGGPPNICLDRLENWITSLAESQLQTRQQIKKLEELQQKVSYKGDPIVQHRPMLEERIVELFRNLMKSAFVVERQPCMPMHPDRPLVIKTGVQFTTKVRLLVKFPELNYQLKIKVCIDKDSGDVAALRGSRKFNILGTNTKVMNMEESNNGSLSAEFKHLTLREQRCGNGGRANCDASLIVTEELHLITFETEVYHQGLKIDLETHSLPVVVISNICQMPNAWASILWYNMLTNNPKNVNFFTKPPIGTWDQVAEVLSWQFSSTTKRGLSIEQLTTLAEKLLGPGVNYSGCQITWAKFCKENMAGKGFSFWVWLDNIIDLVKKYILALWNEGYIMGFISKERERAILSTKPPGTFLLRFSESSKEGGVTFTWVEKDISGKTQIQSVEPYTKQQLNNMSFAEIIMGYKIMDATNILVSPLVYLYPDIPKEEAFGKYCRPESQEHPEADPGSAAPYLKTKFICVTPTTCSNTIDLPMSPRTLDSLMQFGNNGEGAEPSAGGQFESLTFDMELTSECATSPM

THP-1 [10] = experiment: Antiinflammatory activity in human THP1 cells assessed as reduction in LPS-induced TNFalpha mRNA level at 0.5 uM cotreated with 0.5 uM berberine incubated for 1 hr followed by LPS challenge and measured after 4 to 6 hrs by q-PCR method; type: functional, cell-based
Mus musculus [11] = experiment: as §1, with “stool bleeding score” for “spleen swelling”; type: functional, organism-based
Mus musculus [12] = experiment: as §2, with “Anti-colitis activity against” for “Toxicity in”, “reduction in DSS-induced loss” for “induction”, “colon crypt and columnar epithelium” for “abnormalities in brain”; type: functional, organism-based
Mus musculus [13] = experiment: (§3) Anti-colitis activity against DSS-induced C57BL/6 mouse model of subchronic relapsing colitis assessed as reduction in colon swelling at 0.15 mg/kg, po administered once daily for 14 days starting from day 5 post DSS-challenge cotreated with 20 mg/kg berberine and measured after day 12 to day 18; type: functional, organism-based
Mus musculus [14] = experiment: as §3, with “reduction in DSS-induced colon shortening” for “reduction in colon swelling”, “DSS-induced colon shortening at 0.15” for “in colon swelling at 0.15”; type: functional, organism-based
Mus musculus [15] = experiment: Effect on total S1PR1 expression in DSS-induced C57BL/6 mouse model of subchronic relapsing colitis at 0.3 mg/kg, po administered once daily for 14 days starting from day 5 post DSS-challenge by Western blot analysis; type: ADME, organism-based; conditions: in vivo, 336 h
THP-1 [16] = experiment: Antiinflammatory activity in human THP1 cells assessed as reduction in LPS-induced IL6 mRNA level at 0.5 uM cotreated with 0.5 uM berberine incubated for 1 hr followed by LPS challenge and measured after 4 to 6 hrs by q-PCR method; type: functional, cell-based
Mus musculus [17] = experiment: as §1, with “stool consistency score” for “spleen swelling”; type: functional, organism-based
Mus musculus [18] = experiment: Effect on total STAT3 expression in DSS-induced C57BL/6 mouse model of subchronic relapsing colitis at 0.3 mg/kg, po administered once daily for 14 days starting from day 5 post DSS-challenge by Western blot analysis; type: ADME, organism-based; conditions: in vivo, 336 h
Mus musculus [19] = experiment: Anti-colitis activity against DSS-induced C57BL/6 mouse model of subchronic relapsing colitis assessed as reduction in DSS-induced colon swelling at 0.3 mg/kg, po administered once daily for 30 days starting from day 13 post DSS-challenge; type: functional, organism-based
Mus musculus [20] = experiment: Effect on total STAT3 expression in DSS-induced C57BL/6 mouse model of subchronic relapsing colitis at 0.15 mg/kg, po administered once daily for 14 days starting from day 5 post DSS-challenge cotreated with 20 mg/kg berberine by Western blot analysis; type: ADME, organism-based; conditions: in vivo, 336 h
Mus musculus [21] = experiment: Anti-colitis activity against DSS-induced C57BL/6 mouse model of chronic relapsing colitis assessed as reduction in stool bleeding at 0.3 mg/kg, po administered once daily for 30 days starting from day 13 post DSS-challenge measured on day 38; type: functional, organism-based
Mus musculus [22] = experiment: Anti-colitis activity against DSS-induced C57BL/6 mouse model of subchronic relapsing colitis assessed as reversal of DSS-induced colon shortening at 0.15 mg/kg, po administered once daily for 30 days starting from day 13 post DSS-challenge cotreated with 20 mg/kg berberine; type: functional, organism-based
Mus musculus [23] = experiment: Antiinflammatory activity against DSS-induced C57BL/6 mouse model of subchronic relapsing colitis assessed as reduction in TNFalpha mRNA level at 0.15 mg/kg, po administered once daily for 14 days starting from day 5 post DSS-challenge cotreated with 20 mg/kg berberine by RT-qPCR analysis; type: functional, organism-based
Mus musculus [24] = experiment: Anti-colitis activity against DSS-induced C57BL/6 mouse model of chronic relapsing colitis assessed as reduction in stool bleeding at 0.15 mg/kg, po administered once daily for 30 days starting from day 13 post DSS-challenge cotreated with 20 mg/kg berberine and measured on day 38; type: functional, organism-based
Mus musculus [25] = experiment: Anti-colitis activity against DSS-induced C57BL/6 mouse model of chronic relapsing colitis assessed as reduction in DSS-induced mononuclear cell infiltration in spleen at 0.3 mg/kg, po administered once daily for 30 days starting from day 13 post DSS-challenge by hematoxylin and eosin staining based light microscopic analysis; type: functional, organism-based
Mus musculus [26] = experiment: Anti-colitis activity against DSS-induced C57BL/6 mouse model of chronic relapsing colitis assessed as reduction in stool consistency score at 0.15 mg/kg, po administered once daily for 30 days starting from day 13 post DSS-challenge cotreated with 20 mg/kg berberine measured on day 43; type: functional, organism-based
Mus musculus [27] = experiment: Anti-colitis activity against DSS-induced C57BL/6 mouse model of subchronic relapsing colitis assessed as reduction in disease activity index at 0.3 mg/kg, po administered once daily for 14 days starting from day 5 post DSS challenge and measured on day 19; type: functional, organism-based

In the case of `CCCCCCCCc1ccc(CCC(N)(CO)CO)cc1.Cl` [FINGOLIMOD HYDROCHLORIDE], the Activity (Mus musculus [1]) is reported as “inactive”, the Activity (Mus musculus [2]) is reported as “Non-Toxic” and the Activity (Mus musculus [3]) is reported as “inactive”. For the same molecule, the Activity (Mus musculus [4]) was “Active”, the Activity (Mus musculus [5]) was “Active” and the Activity (Mus musculus [6]) was “Active”. The Activity (Mus musculus [7]) was “inactive”, the Activity [8] was “Non-Toxic” and the inhibition [9] was “Active”. The Activity (THP-1 [10]) was “Active”, the Activity (Mus musculus [11]) was “Active” and the Activity (Mus musculus [12]) was “Active”. The Activity (Mus musculus [13]) was “inactive”, the Activity (Mus musculus [14]) was “Active” and the Activity (Mus musculus [15]) was “Non-Toxic”. For the same molecule, the Activity (THP-1 [16]) was “Active”, the Activity (Mus musculus [17]) was “Active” and the Activity (Mus musculus [18]) was “Non-Toxic”. The Activity (Mus musculus [19]) was “inactive”, the Activity (Mus musculus [20]) was “Non-Toxic” and the Activity (Mus musculus [21]) was “Active”. The Activity (Mus musculus [22]) was “Active”, the Activity (Mus musculus [23]) was “Active” and the Activity (Mus musculus [24]) was “Active”. The Activity (Mus musculus [25]) was “Active”, the Activity (Mus musculus [26]) was “Active” and the Activity (Mus musculus [27]) was “Active”.
